Measured values published in patent US7776833B2, “Use of cyclic bioisosters of purine system derivatives for treating diseases produced by disorders of niterergic and dopaminergic systems” (priority 2003, dated 2010).

How the values were obtained:
Type in all cases: in vivo, Wistar rats
[1] = system: nitrites and nitrates (NOx-); assay: Measurement of nitrates/nitrites (NOx-) in brain regions after the morphine abstinence experiment; conditions: 3 x 20 mg/kg intramuscularly
In short: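 Rat brain regions homogenized in 20 mM HEPES pH 7.5 at 4 °C; deproteinized supernatants treated with nitrate reductase, 25 μM NADPH, 25 μM FAD (37 °C, 30 min), then DAN in acid; naphthotriazole fluorescence (ex 365/em 405 nm) against sodium nitrate standard, expressed as nmol/mg protein (Bradford).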

[2] = system: nitric oxide synthase (NOS); assay: Nitric oxide synthase activity in brain regions, radiometric [3H]L-citrulline method; conditions: 3 x 20 mg/kg intramuscularly
In short: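 Rat cortex, hippocampus, mesencephalon, striatum, brainstem, hypothalamus and cerebellum were homogenized in 20 mM HEPES pH 7.5, and the 11000 g supernatant was incubated 15-60 min at 37 °C with [3H]L-arginine, 0.2 mM CaCl2, FAD, FMN, NADPH and BH4. [3H]L-citrulline was counted after Dowex removal of arginine. Ca2+-dependent/independent activity was split using EDTA ± L-NAME, per mg Bradford protein.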

[3] = system: physical dependence from morphine (morphine abstinence); assay: Morphine abstinence syndrome, signs scored in the open field test; conditions: Morphine − (morphine + compound); compound 3 x 20 mg/kg intramuscularly; one value for the three compounds
[4] = Groups Nos. 3-14, compound without morphine, one value for all 12 compounds
[5] = Morphine + compound, one value for the three compounds

For `O=c1[nH][nH]c(=O)c2ncncc12.[Li]` [Compound 35, lithium salt of pyrimido[4,5-d]-6H-pyridazine-5,8-dione], the “Nitrites, brainstem” value [1, 4] was 6.31 ± 0.58 nmol/mg of protein, the “Nitrites, cerebellum” value [1, 4] was 6.66 ± 0.63 nmol/mg of protein and the “Nitrites, cerebral cortex” value [1, 4] was 4.31 ± 0.37 nmol/mg of protein. For the same compound, the “Nitrites, hippocampus” value [1, 4] was 6.47 ± 0.72 nmol/mg of protein, the “Nitrites, hypothalamus” value [1, 4] was 6.77 ± 0.83 nmol/mg of protein and the “Nitrites, midbrain” value [1, 4] was 6.65 ± 0.70 nmol/mg of protein. The “Nitrites, striatum” value [1, 4] was 6.11 ± 0.29 nmol/mg of protein, the “Nitrites, brainstem” value [1, 5] was 6.87 ± 0.81 nmol/mg of protein and the “Nitrites, cerebellum” value [1, 5] was 5.93 ± 0.54 nmol/mg of protein. For the same compound, the “Nitrites, cerebral cortex” value [1, 5] was 4.84 ± 0.31 nmol/mg of protein, the “Nitrites, hippocampus” value [1, 5] was 5.31 ± 0.33 nmol/mg of protein and the “Nitrites, hypothalamus” value [1, 5] was 6.77 ± 0.46 nmol/mg of protein. For the same compound, the “Nitrites, midbrain” value [1, 5] was 5.95 ± 0.52 nmol/mg of protein, the “Nitrites, striatum” value [1, 5] was 3.57 ± 0.42 nmol/mg of protein and the “Activity of NOS, hippocampus” value [2, 4] was 3.09 ± 0.16 nmol/min/mg of protein. For the same compound, the “Activity of NOS, hypothalamus” value [2, 4] was 5.45 ± 0.24 nmol/min/mg of protein, the “Activity of NOS, midbrain” value [2, 4] was 2.60 ± 0.29 nmol/min/mg of protein and the “Activity of NOS, striatum” value [2, 4] was 1.26 ± 0.08 nmol/min/mg of protein. The “Activity of NOS, hippocampus” value [2, 5] was 2.65 ± 0.15 nmol/min/mg of protein, the “Activity of NOS, hypothalamus” value [2, 5] was 5.56 ± 0.34 nmol/min/mg of protein and the “Activity of NOS, midbrain” value [2, 5] was 1.89 ± 0.27 nmol/min/mg of protein. For the same compound, the “Activity of NOS, striatum” value [2, 5] was 1.34 ± 0.09 nmol/min/mg of protein, the “Authentic differences (ξ-square criterion) in appearance of signs of abstinence: <<Wet dog>> shakes” value [3] was 1.0000 and the “Authentic differences (ξ-square criterion) in appearance of signs of abstinence: Aggression” value [3] was 0.8456. For the same compound, the “Authentic differences (ξ-square criterion) in appearance of signs of abstinence: Convulsions” value [3] was 0.5578, the “Authentic differences (ξ-square criterion) in appearance of signs of abstinence: Diarrhea” value [3] was 0.0001 and the “Authentic differences (ξ-square criterion) in appearance of signs of abstinence: Dyspnea” value [3] was 0.0685. For the same compound, the “Authentic differences (ξ-square criterion) in appearance of signs of abstinence: Forelimb jogging” value [3] was 0.9321, the “Authentic differences (ξ-square criterion) in appearance of signs of abstinence: Grit with teeth” value [3] was 0.7003 and the “Authentic differences (ξ-square criterion) in appearance of signs of abstinence: Mastication” value [3] was 0.1888. The “Authentic differences (ξ-square criterion) in appearance of signs of abstinence: Piloerection” value [3] was 0.2345, the “Authentic differences (ξ-square criterion) in appearance of signs of abstinence: Ptosis” value [3] was 0.0232 and the “Authentic differences (ξ-square criterion) in appearance of signs of abstinence: Rhinorrhea” value [3] was 0.2935. The “Authentic differences (ξ-square criterion) in appearance of signs of abstinence: Squeak when touched” value [3] was 0.2035.
